{
  "source": "patent US20020132846A1",
  "about": "“Use of gamma substituted gamma-butyrolactones to increase levels of their corresponding substituted gamma-hydroxybutyrate derivatives in humans” (priority 2001, published 2002)",
  "origin": "cited, not measured here",
  "key": {"[1]": {"test_system": "GHB receptor"}, "[2]": {"test_system": "lactonase", "details": "oral ingestion, lactonase catalyzed hydrolysis; reference (7)"}, "[3]": {"details": "used according to prescribed dosing levels and schedules"}},
  "data": [
    {"compound": "CC(O)CCC(=O)O", "note": "(stereo not shown) [4-methyl substituted gamma-hydroxybutyrate]", "values": [
      {"measurement": "affinity for the GHB receptor", "setting": "[1]; compared with gamma-hydroxybutyrate itself", "value": "greater affinity than gamma-hydroxybutyrate itself"},
      {"measurement": "more potent at the receptor than gamma-hydroxybutyrate itself", "setting": "[1]; relative to gamma-hydroxybutyrate, reference (8)", "value": 15, "unit": "%"}
    ]},
    {"compound": "O=C1CCCO1", "note": "[gamma-butyrolactone]", "values": [
      {"measurement": "formation of the parent compound gamma-hydroxybutyrate", "setting": "[2]", "value": "rapidly forms the parent compound"}
    ]},
    {"compound": "O=C(O)CCCO", "note": "[gamma-hydroxybutyrate]", "values": [
      {"measurement": "physical or psychological addiction", "setting": "[3]", "value": "no reports of physical or psychological addiction"}
    ]}
  ]
}
